In patent publication US20250302788A1, “COMPOSITION COMPRISING CREATINE FOR USE IN THE TREATMENT OF POST VIRAL FATIGUE SYNDROME” (Alzchem Trostberg GmbH, priority 2022, published 2025):
Like-named read-outs stand apart in the source and are kept apart here.

What was measured:
[1] = normal healthy population; cited from earlier work
PCFS patients [2] = experiment: MFI-20 fatigue test, Example 3; assay type: in vivo, human
PCFS patients [3] = assay type: in vivo, human
[4] = test system: patients suffering under Post-COVID; experiment: VAS scale of COVID-19-related signs and symptoms, Example 1; assay type: in vivo, human; conditions: 4 g/day
Experimental: (§1) The patient-reported outcomes for COVID-19-related signs and symptoms (e.g. headache, concentrating difficulties, anosmia, ageusia) were evaluated with VAS scale. Fatigue, comprising the conditions of the group general fatigue, physical fatigue, metal fatigue, reduced activity, and reduced motivation, was evaluated with a multidimensional fatigue inventory test (MFI-20 test, Smets E. M. et al., J. Psychosom. Res. 1995, 39 (3), 315).

[5] = human, in vivo
[6] = test system: patients suffering under Post-COVID; experiment: Incremental treadmill test until exhaustion, Example 1; assay type: in vivo, human; conditions: for Time to exhaustion: 4 g/day
Experimental: In addition the time to exhaustion of the patients was evaluated by an incremental test until exhaustion on a motorized treadmill. Speed and gradient of the treadmill are increased every third minute, starting at 2.7 km/h (1.7 miles per hour) at a 10% gradient and rising at stage 7 to 9.7 km/h (6 miles per hour) at 22% gradient (Will P. M. and Walter J. D., Am Heart. J., 1999 December, 138, 1033).

PCFS patients [7] = experiment: Incremental treadmill test until exhaustion, Example 3; assay type: in vivo, human
Experimental: In addition the time to exhaustion of the patients was evaluated by an incremental test until exhaustion on a motorized treadmill.

[8] = test system: patients suffering under Post-COVID; experiment: Reported side effects, Example 1; assay type: in vivo, human; conditions: 4 g creatine monohydrate/day, up to 6 months
Experimental: The number of participants who were randomly assigned, received intended treatment, and were analyzed for the primary outcome at this time was twelve in total, six in experimental group and six in control group.

PCFS patients [9] = conditions: in vivo
[10] = both, human, in vivo
[11] = test system: patients suffering under Post-COVID; experiment: MFI-20 multidimensional fatigue inventory test, Example 1; assay type: in vivo, human; conditions: 4 g/day
Experimental: as §1

[12] = 8 weeks vs baseline, listed as EXP 2, monohydrate
[13] = 8 weeks vs baseline, monohydrate

CN(CC(=O)O)C(=N)N.O [Creatine, creatine monohydrate]
Increase of creatine in the brain after creatine supplementation [1]: ≤ 5% | General fatigue (MFI-20 score) (PCFS patients [2]; 8 weeks): 12.0 | Mental fatigue (MFI-20 score) (PCFS patients [2]; 8 weeks): 12.2 | Physical fatigue (MFI-20 score) (PCFS patients [2]; 8 weeks): 11.4 | Reduced activity (MFI-20 score) (PCFS patients [2]; 8 weeks): 12.0 | Reduced motivation (MFI-20 score) (PCFS patients [2]; 8 weeks): 10.3 | Cohen's effect (d), General Fatigue (PCFS patients [2]; 8 weeks vs baseline): 0.44 | Cohen's effect (d), Mental Fatigue (MF) (PCFS patients [2]; 8 weeks vs baseline): 1.32 | Cohen's effect (d), Physical Fatigue (PF) (PCFS patients [2]; 8 weeks vs baseline): 0.83 | Cohen's effect (d), Reduced Motivation (RM) (PCFS patients [2]; 8 weeks vs baseline): 1.07 | Cohen's effect (d), Reduced activity (RA) (PCFS patients [2]; 8 weeks vs baseline): 1.52 | General fatigue (MFI-20 score) (PCFS patients [2]; Baseline): 12.6 | Mental fatigue (MFI-20 score) (PCFS patients [2]; Baseline): 13.4 | Physical fatigue (MFI-20 score) (PCFS patients [2]; Baseline): 12.2 | Reduced activity (MFI-20 score) (PCFS patients [2]; Baseline): 13.6 | Reduced motivation (MFI-20 score) (PCFS patients [2]; Baseline): 11.6 | Ageusia (VAS scale) (PCFS patients [3]; 8 weeks): 0.2 | Anosmia (VAS scale) (PCFS patients [3]; 8 weeks): 0.0 | Concentrating difficulties (VAS scale) (PCFS patients [3]; 8 weeks): 2.2 | Headache (VAS scale) (PCFS patients [3]; 8 weeks): 0.8 | Malaise (VAS scale) (PCFS patients [3]; 8 weeks): 1.0 | Cohen's effect (d), Ageusia (AGE) (PCFS patients [3]; 8 weeks vs baseline): 0.34 | Cohen's effect (d), Breathing Difficulties (BRD) (PCFS patients [3]; 8 weeks vs baseline): 0.96 | Cohen's effect (d), Headache (HAD) (PCFS patients [3]; 8 weeks vs baseline): 0.93 | Cohen's effect (d), Difficulties concentrating (DCN) (PCFS patients [3]; [12]): 1.37 | Cohen's effect (d), Malaise (MAL) (PCFS patients [3]; [12]): 1.81 | Cohen's effect (d), Difficulties concentrating (DCN) (PCFS patients [3]; [13]): > 0.80 | Cohen's effect (d), Malaise (MAL) (PCFS patients [3]; [13]): > 0.80 | Ageusia (VAS scale) (PCFS patients [3]; Baseline): 0.0 | Anosmia (VAS scale) (PCFS patients [3]; Baseline): 0.0 | Concentrating difficulties (VAS scale) (PCFS patients [3]; Baseline): 4.2 | Headache (VAS scale) (PCFS patients [3]; Baseline): 3.2 | Malaise (VAS scale) (PCFS patients [3]; Baseline): 4.2 | Ageusia (VAS scale) ([4]; 3 months): 0.2 | Anosmia (VAS scale) ([4]; 3 months): 1.0 | Concentrating difficulties (VAS scale) ([4]; 3 months): 1.5 | Headache (VAS scale) ([4]; 3 months): 0.8 | Ageusia (VAS scale) ([4]; 6 months): 0.0 | Anosmia (VAS scale) ([4]; 6 months): 0.8 | Concentrating difficulties (VAS scale) ([4]; 6 months): 0.0 | Headache (VAS scale) ([4]; 6 months): 0.5 | Ageusia (VAS scale) ([4]; Baseline): 5.0 | Anosmia (VAS scale) ([4]; Baseline): 5.0 | Concentrating difficulties (VAS scale) ([4]; Baseline): 4.0 | Headache (VAS scale) ([4]; Baseline): 3.8 | Total creatine, Vastus medialis muscle ([5]; 0 months): 28.2 ± 3.0 mM | Cohen's effect size (d), brain creatine level, left parietal white matter ([5]; 3 months): 0.92 | Cohen's effect size (d), brain creatine level, parietal white matter ([5]; 3 months): 1.99 | Cohen's effect size (d), brain creatine level, right frontal white matter ([5]; 3 months): 1.25 | Cohen's effect size (d), brain creatine level, right paracentral grey matter ([5]; 3 months): 0.88 | Cohen's effect size (d), brain creatine level, right parietal messial grey matter ([5]; 3 months): 1.17 | Cohen's effect size (d), brain creatine level, thalamus ([5]; 3 months): 0.82 | Total creatine, Vastus medialis muscle ([5]; 3 months): 30.0 ± 4.2 mM | Cohen's effect size (d), brain creatine level, left parietal messial grey matter ([5]; 6 months): 0.84 | Cohen's effect size (d), brain creatine level, left parietal white matter ([5]; 6 months): 1.17 | Cohen's effect size (d), brain creatine level, parietal white matter ([5]; 6 months): 1.74 | Cohen's effect size (d), brain creatine level, right frontal white matter ([5]; 6 months): 1.32 | Cohen's effect size (d), brain creatine level, right parietal messial grey matter ([5]; 6 months): 1.06 | Total creatine, Vastus medialis muscle ([5]; 6 months): 30.6 ± 3.4 mM | Time to exhaustion ([6]; 3-months): 922 s | Time to exhaustion ([6]; 6-months): 959 s | Time to exhaustion ([6]; Baseline): 894 s | Stage achieved in the treadmill test ([6]; placebo group remains at stage 5): stage 6 | Increase of time to exhaustion ([6]; vs baseline, compared to 2.1% after placebo intake): 7.3% | Time to exhaustion (PCFS patients [7]; 8 weeks): 844 s | Time to exhaustion (PCFS patients [7]; Baseline): 824 s | Change of time to exhaustion (PCFS patients [7]; post-administration (8 weeks) vs baseline): 20 s | Side effects [8]: no major side effects | Side effects / tolerability (PCFS patients [9]): well-tolerated | Total creatine, Left frontal grey matter [10]: 6.6 ± 0.6 mM | Total creatine, Left frontal white matter [10]: 6.7 ± 0.7 mM | Total creatine, Left mesial grey matter [10]: 8.1 ± 1.3 mM | Total creatine, Left paracentral grey matter [10]: 6.8 ± 0.8 mM | Total creatine, Left parietal white matter [10]: 7.5 ± 1.6 mM | Total creatine, Left precentral white matter [10]: 6.4 ± 1.0 mM | Total creatine, Right frontal grey matter [10]: 6.6 ± 1.1 mM | Total creatine, Right frontal white matter [10]: 6.7 ± 1.0 mM | Total creatine, Right mesial grey matter [10]: 8.4 ± 1.4 mM | Total creatine, Right paracentral grey matter [10]: 7.2 ± 0.8 mM | Total creatine, Right parietal white matter [10]: 7.6 ± 1.9 mM | Total creatine, Right precentral white matter [10]: 6.8 ± 0.9 mM | Total creatine, Thalamus [10]: 5.1 ± 1.0 mM | Total creatine, Vastus medialis muscle [10]: 29.0 ± 5.6 mM | Cohen's effect size (d) for creatine increase, parietal mesial grey matter ([10]; 8 weeks): 0.65 | Total creatine, Left frontal grey matter ([10]; 8 weeks): 6.5 ± 0.5 mM | Total creatine, Left frontal white matter ([10]; 8 weeks): 6.8 ± 0.9 mM | Total creatine, Left mesial grey matter ([10]; 8 weeks): 8.6 ± 1.1 mM | Total creatine, Left paracentral grey matter ([10]; 8 weeks): 6.9 ± 0.9 mM | Total creatine, Left parietal white matter ([10]; 8 weeks): 7.8 ± 1.3 mM | Total creatine, Left precentral white matter ([10]; 8 weeks): 6.7 ± 0.8 mM | Total creatine, Right frontal grey matter ([10]; 8 weeks): 6.7 ± 1.0 mM | Total creatine, Right frontal white matter ([10]; 8 weeks): 7.0 ± 1.1 mM | Total creatine, Right mesial grey matter ([10]; 8 weeks): 9.2 ± 1.0 mM | Total creatine, Right paracentral grey matter ([10]; 8 weeks): 7.6 ± 1.6 mM | Total creatine, Right parietal white matter ([10]; 8 weeks): 7.7 ± 1.9 mM | Total creatine, Right precentral white matter ([10]; 8 weeks): 7.4 ± 1.1 mM | Total creatine, Thalamus ([10]; 8 weeks): 5.3 ± 0.9 mM | Total creatine, Vastus medialis muscle ([10]; 8 weeks): 30.4 ± 5.2 mM | General fatigue (MFI-20 score) ([11]; 3 months): 11.3 | Mental fatigue (MFI-20 score) ([11]; 3 months): 11.2 | Physical fatigue (MFI-20 score) ([11]; 3 months): 12.7 | Reduced activity (MFI-20 score) ([11]; 3 months): 12.0 | Reduced motivation (MFI-20 score) ([11]; 3 months): 13.0 | General fatigue (MFI-20 score) ([11]; 6 months): 12.7 | Mental fatigue (MFI-20 score) ([11]; 6 months): 10.5 | Physical fatigue (MFI-20 score) ([11]; 6 months): 13.2 | Reduced activity (MFI-20 score) ([11]; 6 months): 12.5 | Reduced motivation (MFI-20 score) ([11]; 6 months): 12.5 | General fatigue (MFI-20 score) ([11]; Baseline): 12.0 | Mental fatigue (MFI-20 score) ([11]; Baseline): 12.3 | Physical fatigue (MFI-20 score) ([11]; Baseline): 13.5 | Reduced activity (MFI-20 score) ([11]; Baseline): 11.5 | Reduced motivation (MFI-20 score) ([11]; Baseline): 13.0
